Results published in patent US9861096B2, “Biodegradable chemical delivery system” (Cornell University, priority 2008, dated 2018).

Test: Identification of Columbia Blue in release media by LC/MS (stability)
Format: physicochemical
Details: water at room temperature and PBS pH 7.4 at 37° C., 16 week release experiments
Procedure: The concentration of Columbia Blue was determined using Liquid Chromatography/Mass Spectroscopy (LC/MS) (Agilent Technologies 6130 Quadrupole LC/MS), and the Columbia Blue was identified using mass spectroscopy. The column used was a Restek Ultra C18, 5 μm, 250×4.6 mm. The mobile phase consisted of 60% acetonitrile and 40% water at a flow rate of 1.0 ml/min. The concentration was determined using UV detection at a wavelength of 374 nm.
A model pesticide, Columbia Blue, was chosen following Briggs's “rule of 3” (Briggs, G. G., Uptake of Agrochemicals & Pharmaceuticals ‘Predicting uptake & movement of agrochemicals from physical properties’, in SCI Meeting. 1997) and Clarke-Delaney's “guide of 2” (Clarke, E. D. and J. S. Delaney, Designing Drugs and Crop Protectants: Processes, Problems and Solutions, ed. D. L. M. Ford, J. Dearden, H. V. de Waterbeemd. 2003: Blackwell Publishing, Malden). During the release measurements, Columbia Blue was identified by the LC/MS. The retention time of Columbia Blue of HPLC spectrum remained unchanged at 9.8 minutes.

degradation of Columbia Blue in the release media: did not degrade
Substance: Columbia Blue
